Assay results reported in patent US10457691B2, “Macrocyclic kinase inhibitors and uses thereof” (Dana-Farber Cancer Institute, Inc., priority 2014, dated 2019).

Experiments:
Assay type in all cases: biochemical
Conditions in all cases: read-out: Activity of the protein kinase when treated with compound I-1 (% control)
DYRK1A = DYRK1A (Homo sapiens, UniProt Q13627); assay: Protein kinase assay ([γ-32P] ATP), DYRK1A
Description: (§1) In another set of experiments, the activities of the compounds described herein against various protein kinases were determined according to the methods reported in Hastie et al., Nature Protocols, 2006, 1, 968-971.
(§2) Enzyme dilution buffer. This buffer consisted of 50 mM Tris-HCl, pH 7.5, 0.1 mM EGTA, 1 mg ml^−1 bovine serum albumin and 0.1% (vol/vol) 2-mercaptoethanol.
(§3) 10× concentrated assay buffer. An assay buffer of 500 mM Tris-HCl, pH 7.5, 1 mM EGTA, and 100 mM magnesium acetate was used for assay of a wide variety of protein kinases. In some experiments, other cofactors were included (e.g., calcium ions and calmodulin were included for assay of calcium-calmodulindependent protein kinases).
(§4) 1 mM [γ-^32P] ATP. The specific activity of the [γ-^32P] ATP solution was 1×10^5 to 1×10^6 c.p.m. per nmol depending on what was needed to produce an optimal signal/noise ratio. […] To measure the concentration of ATP, a sample of such a stock solution was diluted to 20 μM, and the absorbance of the diluted sample was measured at 259 nm. The absorbance of a 20-μM stock solution of ATP at 259 nm was about 0.31. […] ATP to produce a radioactivity of 1×10^5 to 1×10^6 c.p.m. per nmol. […]
(§5) 13) Measure radioactivity in the samples by Cerenkov counting (e.g., without liquid scintillation fluid) in a liquid scintillation counter using a “^32P program”. […]

DYRK2 = DYRK2 (Homo sapiens, UniProt Q92630); assay: Protein kinase assay ([γ-32P] ATP), DYRK2
Description: as §1, §2, §3, §4, §5

EPH-B1 = EPH-B1 (Homo sapiens, UniProt P54762); assay: Protein kinase assay ([γ-32P] ATP), EPH-B1
Description: as §1, §2, §3, §4, §5

IKKb = IKKb (Homo sapiens, UniProt O14920); assay: Protein kinase assay ([γ-32P] ATP), IKKb
Description: as §1, §2, §3, §4, §5

IKKe = IKKe (Homo sapiens, UniProt Q14164); assay: Protein kinase assay ([γ-32P] ATP), IKKe
Sequence of IKKe (Q14164 whole entry): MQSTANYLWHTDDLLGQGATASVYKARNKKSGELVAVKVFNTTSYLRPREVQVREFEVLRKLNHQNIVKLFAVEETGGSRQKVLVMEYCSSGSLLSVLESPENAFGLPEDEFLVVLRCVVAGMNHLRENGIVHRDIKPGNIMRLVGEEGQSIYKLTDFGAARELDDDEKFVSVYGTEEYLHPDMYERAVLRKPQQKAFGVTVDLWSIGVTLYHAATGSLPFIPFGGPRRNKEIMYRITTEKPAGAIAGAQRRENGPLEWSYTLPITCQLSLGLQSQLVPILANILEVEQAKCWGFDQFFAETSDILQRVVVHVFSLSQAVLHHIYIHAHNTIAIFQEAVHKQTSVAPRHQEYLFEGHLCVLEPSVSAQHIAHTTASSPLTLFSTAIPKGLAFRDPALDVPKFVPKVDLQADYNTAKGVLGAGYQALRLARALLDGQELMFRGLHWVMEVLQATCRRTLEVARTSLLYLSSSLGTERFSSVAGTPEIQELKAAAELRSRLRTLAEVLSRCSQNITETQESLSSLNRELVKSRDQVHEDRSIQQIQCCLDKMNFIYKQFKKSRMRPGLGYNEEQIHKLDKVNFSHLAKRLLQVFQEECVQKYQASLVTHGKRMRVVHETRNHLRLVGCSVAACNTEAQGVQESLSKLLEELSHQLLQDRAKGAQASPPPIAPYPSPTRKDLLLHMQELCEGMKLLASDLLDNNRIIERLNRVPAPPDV
Description: as §1, §2, §3, §4, §5

MKK2 = MKK2 (Homo sapiens, UniProt P36507); assay: Protein kinase assay ([γ-32P] ATP), MKK2
Description: as §1, §2, §3, §4, §5

MLK3 = MLK3 (Homo sapiens, UniProt Q16584); assay: Protein kinase assay ([γ-32P] ATP), MLK3
Sequence of MLK3 (Q16584 whole entry): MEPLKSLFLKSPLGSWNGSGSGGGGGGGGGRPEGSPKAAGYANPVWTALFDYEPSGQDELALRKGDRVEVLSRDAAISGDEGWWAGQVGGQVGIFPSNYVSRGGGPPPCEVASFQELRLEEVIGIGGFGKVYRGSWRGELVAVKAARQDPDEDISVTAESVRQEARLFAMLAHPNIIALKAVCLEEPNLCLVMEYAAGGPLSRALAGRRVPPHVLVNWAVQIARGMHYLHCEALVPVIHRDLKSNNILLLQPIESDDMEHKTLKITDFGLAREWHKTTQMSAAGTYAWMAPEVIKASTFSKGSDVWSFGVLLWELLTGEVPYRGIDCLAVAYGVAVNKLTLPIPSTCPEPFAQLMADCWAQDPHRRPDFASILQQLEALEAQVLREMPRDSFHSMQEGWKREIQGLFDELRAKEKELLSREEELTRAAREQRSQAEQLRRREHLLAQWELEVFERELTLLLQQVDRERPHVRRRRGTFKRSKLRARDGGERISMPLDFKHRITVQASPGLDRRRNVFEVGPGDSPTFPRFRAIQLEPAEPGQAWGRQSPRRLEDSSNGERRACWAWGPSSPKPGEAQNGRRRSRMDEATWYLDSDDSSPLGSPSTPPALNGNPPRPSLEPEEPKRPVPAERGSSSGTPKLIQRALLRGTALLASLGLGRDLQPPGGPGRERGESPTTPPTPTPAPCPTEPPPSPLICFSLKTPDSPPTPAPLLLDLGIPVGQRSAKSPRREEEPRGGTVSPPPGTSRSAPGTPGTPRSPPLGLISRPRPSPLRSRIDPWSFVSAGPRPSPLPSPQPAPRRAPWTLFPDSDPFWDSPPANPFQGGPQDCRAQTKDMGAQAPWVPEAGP
Description: as §1, §2, §3, §4, §5

MNK1 = MNK1 (Homo sapiens, UniProt Q9BUB5); assay: Protein kinase assay ([γ-32P] ATP), MNK1
Description: as §1, §2, §3, §4, §5

MST2 = MST2 (Homo sapiens, UniProt Q13188); assay: Protein kinase assay ([γ-32P] ATP), MST2
Description: as §1, §2, §3, §4, §5

NUAK1 = NUAK1 (Homo sapiens, UniProt O60285); assay: Protein kinase assay ([γ-32P] ATP), NUAK1
Description: as §1, §2, §3, §4, §5

OSR1 = OSR1 (Homo sapiens, UniProt O95747); assay: Protein kinase assay ([γ-32P] ATP), OSR1
Description: as §1, §2, §3, §4, §5

PKA = PKA (Homo sapiens, UniProt P17612); assay: Protein kinase assay ([γ-32P] ATP), PKA
Description: as §1, §2, §3, §4, §5

RSK2 = RSK2 (Homo sapiens, UniProt P51812); assay: Protein kinase assay ([γ-32P] ATP), RSK2
Description: as §1, §2, §3, §4, §5

SGK1 = SGK1 (Homo sapiens, UniProt O00141); assay: Protein kinase assay ([γ-32P] ATP), SGK1
Sequence of SGK1 (O00141 whole entry, species assumed): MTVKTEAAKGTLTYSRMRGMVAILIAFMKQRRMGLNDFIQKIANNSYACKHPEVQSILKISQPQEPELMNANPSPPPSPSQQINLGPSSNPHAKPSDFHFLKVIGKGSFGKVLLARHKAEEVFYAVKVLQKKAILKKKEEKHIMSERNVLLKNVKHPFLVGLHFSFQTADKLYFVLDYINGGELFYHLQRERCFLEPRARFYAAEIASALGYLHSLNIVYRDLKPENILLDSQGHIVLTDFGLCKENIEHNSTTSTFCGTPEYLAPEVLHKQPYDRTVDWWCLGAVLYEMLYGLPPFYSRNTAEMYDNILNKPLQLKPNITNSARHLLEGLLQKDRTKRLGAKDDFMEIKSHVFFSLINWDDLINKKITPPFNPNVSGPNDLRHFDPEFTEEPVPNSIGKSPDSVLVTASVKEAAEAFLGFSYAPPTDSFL
Description: as §1, §2, §3, §4, §5

STK33 = STK33 (Homo sapiens, UniProt Q9BYT3); assay: Protein kinase assay ([γ-32P] ATP), STK33
Sequence of STK33 (Q9BYT3 whole entry, species assumed): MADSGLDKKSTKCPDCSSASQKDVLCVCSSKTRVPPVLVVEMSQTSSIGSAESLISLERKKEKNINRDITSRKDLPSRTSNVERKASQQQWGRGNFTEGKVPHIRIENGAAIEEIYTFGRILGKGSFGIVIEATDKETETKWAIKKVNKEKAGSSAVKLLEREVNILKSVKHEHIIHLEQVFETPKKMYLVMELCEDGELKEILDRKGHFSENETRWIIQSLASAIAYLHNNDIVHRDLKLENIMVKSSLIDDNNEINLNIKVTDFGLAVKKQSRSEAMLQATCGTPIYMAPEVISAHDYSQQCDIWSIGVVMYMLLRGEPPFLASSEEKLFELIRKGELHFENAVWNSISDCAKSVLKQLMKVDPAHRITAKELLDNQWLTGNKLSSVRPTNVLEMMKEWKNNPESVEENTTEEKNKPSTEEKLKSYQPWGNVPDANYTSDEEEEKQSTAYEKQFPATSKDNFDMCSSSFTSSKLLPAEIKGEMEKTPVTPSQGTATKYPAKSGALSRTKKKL
Description: as §1, §2, §3, §4, §5

TAO1 = TAO1 (Homo sapiens, UniProt Q7L7X3); assay: Protein kinase assay ([γ-32P] ATP), TAO1
Description: as §1, §2, §3, §4, §5

WNK1 = WNK1 (Homo sapiens, UniProt Q9H4A3); assay: Protein kinase assay ([γ-32P] ATP), WNK1
Sequence of WNK1 (Q9H4A3 whole entry): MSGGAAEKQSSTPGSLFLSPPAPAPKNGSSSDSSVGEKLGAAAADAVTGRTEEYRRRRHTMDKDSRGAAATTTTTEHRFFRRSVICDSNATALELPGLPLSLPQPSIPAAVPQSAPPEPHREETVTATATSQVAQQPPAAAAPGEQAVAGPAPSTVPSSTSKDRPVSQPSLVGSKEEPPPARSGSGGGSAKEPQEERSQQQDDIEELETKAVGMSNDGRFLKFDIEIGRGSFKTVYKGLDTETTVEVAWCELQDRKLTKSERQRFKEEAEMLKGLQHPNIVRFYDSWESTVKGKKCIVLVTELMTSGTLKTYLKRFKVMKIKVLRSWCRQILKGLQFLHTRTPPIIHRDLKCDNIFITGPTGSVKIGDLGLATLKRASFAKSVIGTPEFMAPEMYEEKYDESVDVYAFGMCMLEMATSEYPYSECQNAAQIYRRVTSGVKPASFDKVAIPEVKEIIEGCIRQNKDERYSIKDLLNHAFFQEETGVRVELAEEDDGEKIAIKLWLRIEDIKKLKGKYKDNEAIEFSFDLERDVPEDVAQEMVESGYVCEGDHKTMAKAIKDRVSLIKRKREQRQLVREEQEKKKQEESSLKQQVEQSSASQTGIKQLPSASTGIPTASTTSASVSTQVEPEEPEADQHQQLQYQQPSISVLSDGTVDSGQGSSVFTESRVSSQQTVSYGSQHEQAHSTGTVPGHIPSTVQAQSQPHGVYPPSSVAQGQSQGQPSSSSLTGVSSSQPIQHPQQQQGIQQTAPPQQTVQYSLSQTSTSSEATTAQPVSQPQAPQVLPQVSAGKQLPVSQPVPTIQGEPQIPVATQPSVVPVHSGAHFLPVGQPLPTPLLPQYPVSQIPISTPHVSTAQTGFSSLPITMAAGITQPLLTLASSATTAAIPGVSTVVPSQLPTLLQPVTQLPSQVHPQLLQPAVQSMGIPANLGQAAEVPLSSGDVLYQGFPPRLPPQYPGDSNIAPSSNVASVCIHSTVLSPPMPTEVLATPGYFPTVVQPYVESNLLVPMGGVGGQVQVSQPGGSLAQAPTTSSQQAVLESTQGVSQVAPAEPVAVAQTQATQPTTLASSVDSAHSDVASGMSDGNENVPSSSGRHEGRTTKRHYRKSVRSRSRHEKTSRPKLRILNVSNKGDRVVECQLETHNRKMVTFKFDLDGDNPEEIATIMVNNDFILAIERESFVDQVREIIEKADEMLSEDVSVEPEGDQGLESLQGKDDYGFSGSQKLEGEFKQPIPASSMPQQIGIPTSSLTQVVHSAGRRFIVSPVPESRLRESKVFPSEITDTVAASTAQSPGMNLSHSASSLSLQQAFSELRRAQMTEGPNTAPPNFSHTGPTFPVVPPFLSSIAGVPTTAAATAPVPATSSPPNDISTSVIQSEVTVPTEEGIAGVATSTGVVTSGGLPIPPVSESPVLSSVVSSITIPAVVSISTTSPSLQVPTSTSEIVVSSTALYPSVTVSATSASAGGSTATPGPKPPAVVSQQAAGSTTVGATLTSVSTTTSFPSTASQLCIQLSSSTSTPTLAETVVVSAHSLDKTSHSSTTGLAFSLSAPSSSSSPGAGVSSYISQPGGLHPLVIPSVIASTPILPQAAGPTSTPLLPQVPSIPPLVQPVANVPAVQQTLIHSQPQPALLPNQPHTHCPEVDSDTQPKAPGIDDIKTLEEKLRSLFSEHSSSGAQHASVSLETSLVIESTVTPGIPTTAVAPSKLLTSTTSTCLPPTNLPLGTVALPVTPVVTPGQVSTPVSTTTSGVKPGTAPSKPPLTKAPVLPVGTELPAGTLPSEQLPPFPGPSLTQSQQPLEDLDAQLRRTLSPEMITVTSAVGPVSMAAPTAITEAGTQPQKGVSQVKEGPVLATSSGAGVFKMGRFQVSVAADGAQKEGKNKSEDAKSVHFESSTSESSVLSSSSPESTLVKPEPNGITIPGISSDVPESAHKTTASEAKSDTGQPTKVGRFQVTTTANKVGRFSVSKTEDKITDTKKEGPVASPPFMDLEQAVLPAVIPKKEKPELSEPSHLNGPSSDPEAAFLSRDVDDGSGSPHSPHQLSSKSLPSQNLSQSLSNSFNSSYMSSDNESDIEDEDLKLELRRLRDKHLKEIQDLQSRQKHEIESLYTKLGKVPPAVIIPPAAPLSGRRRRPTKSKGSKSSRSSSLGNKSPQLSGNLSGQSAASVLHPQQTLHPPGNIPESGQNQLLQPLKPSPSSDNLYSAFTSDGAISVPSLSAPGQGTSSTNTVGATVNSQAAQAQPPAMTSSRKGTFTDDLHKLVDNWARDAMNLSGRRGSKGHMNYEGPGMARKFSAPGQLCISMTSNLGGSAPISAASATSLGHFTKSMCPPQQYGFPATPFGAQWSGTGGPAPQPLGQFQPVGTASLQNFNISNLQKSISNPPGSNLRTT
Description: as §1, §2, §3, §4, §5

[1] = 0.1 μM of compound I-1, DMSO control = 100%
[2] = 1 μM of compound I-1, DMSO control = 100%

## Cc1cccc(C)c1NC(=O)N1C/C=C\COc2cccc(c2)Nc2cc1ncn2 [Compound I-1]
DYRK1A; [1]
  remaining activity at 0.1 µM: 104%
DYRK1A; [2]
  remaining activity at 1 µM: 86%
DYRK2; [1]
  remaining activity at 0.1 µM: 103%
DYRK2; [2]
  remaining activity at 1 µM: 76%
EPH-B1; [1]
  remaining activity at 0.1 µM: 40%
EPH-B1; [2]
  remaining activity at 1 µM: 43%
IKKb; [1]
  remaining activity at 0.1 µM: 103%
IKKb; [2]
  remaining activity at 1 µM: 77%
IKKe; [1]
  remaining activity at 0.1 µM: 111%
IKKe; [2]
  remaining activity at 1 µM: 90%
MKK2; [1]
  remaining activity at 0.1 µM: 119%
MKK2; [2]
  remaining activity at 1 µM: 77%
MLK3; [1]
  remaining activity at 0.1 µM: 94%
MLK3; [2]
  remaining activity at 1 µM: 39%
MNK1; [1]
  remaining activity at 0.1 µM: 105%
MNK1; [2]
  remaining activity at 1 µM: 90%
MST2; [1]
  remaining activity at 0.1 µM: 99%
MST2; [2]
  remaining activity at 1 µM: 98%
NUAK1; [1]
  remaining activity at 0.1 µM: 100%
NUAK1; [2]
  remaining activity at 1 µM: 93%
OSR1; [1]
  remaining activity at 0.1 µM: 97%
OSR1; [2]
  remaining activity at 1 µM: 79%
PKA; [1]
  remaining activity at 0.1 µM: 105%
PKA; [2]
  remaining activity at 1 µM: 88%
RSK2; [1]
  remaining activity at 0.1 µM: 98%
RSK2; [2]
  remaining activity at 1 µM: 81%
SGK1; [1]
  remaining activity at 0.1 µM: 96%
SGK1; [2]
  remaining activity at 1 µM: 100%
STK33; [1]
  remaining activity at 0.1 µM: 116%
STK33; [2]
  remaining activity at 1 µM: 100%
TAO1; [1]
  remaining activity at 0.1 µM: 72%
TAO1; [2]
  remaining activity at 1 µM: 34%
WNK1; [1]
  remaining activity at 0.1 µM: 102%
WNK1; [2]
  remaining activity at 1 µM: 85%
